# From US20250027956A1, “Improved Gamma-Secretase Inhibitor Screening Assays” (VIB VZW, priority 2021, published 2025)
# Key:
# [1] = test system: WT MEFs; assay: Lysosomal Ca2+ content, Fura-2AM loaded cells challenged with GPN, WT cells; type: cell-based, mouse; conditions: normalized to DMSO
# Protocol: (§1) Cells were treated with the following drugs, usually for 4 days, unless otherwise stated: DAPT (2634/10, Tocris) 1 μM final; Inhibitor X (565771-250 μg, Calbiochem/Merck) 1 μM final; β-Secretase Inhibitor IV (565788, Calbiochem/Merck) 2 μM final, (2-Hydroxypropyl)-γ-cyclodextrin (H125-5G-I, Sigma Aldrich) 1 mM final; Adam 10 inhibitor G1254023X (SML0789, Sigma Aldrich) 3 μM final. For OSW-1 (30310-1, Sanbio/Cayman Chemical), cells were treated overnight with 10 nM. Diluent treatment alone (in most cases DMSO, water for the cyclodextrin) was used as vehicle control.
# Cytosolic response: Ca2+ responses were measured as previously described in Coen et al 2012. Briefly, cells (0.005 to 0.01×106) were seeded two to three days prior to the experiment on glass coverslips (631-0153, VWR). On the day of recording, cells were rinsed three times in Ringer solution (155 mM NaCl, 5 mM KCl, 2 mM MgCl2, 2 mM CaCl2, 10 mM Glucose, 10 mM HEPES, 2 mM NaH2PO4·2H20; pH 7.3), and loaded 1 μM Fura2-AM (F1221, ThermoFisher Scientific) for 30 min (RT). Cells were rinsed three times and left to equilibrate for at least 15-20 min (RT). All acquisitions were carried out in Ringer Ca2+ free solution (same as above, albeit the 2 mM CaCl2 were replaced by 2 mM EGTA). During experiments, cells were challenged with different drugs, such as Thapsigargin (T7459, ThermoFisher Scientific, 1 μM final), GPN (ab145914, abcam, 100 μM final for MEFs, 500 μM for neurons), MLSA1 (Cat. No. 4746, Tocris, 20 μM final) or lonomycin (10634, Sigma Aldrich, 1 μM final). Images were acquired every 5 sec for 8-10 min, using an Olympus IX81 using an UAPO/340 40× oil objective (1.35 NA), operated by CellR Software (Olympus). Recordings were done using 340 and 380 nm excitation, and 530 nm emission filters. Image processing was performed using Image J Software (Schindelin et al 2012; Schneider et al 2012). Briefly, cells were segmented manually and fluorescence intensities were measured over time. Fura-2 signals were corrected to obtain ΔF/F0 (F0 being the initial signal recorded). For each cell, the area under the curve, corresponding to the aforementioned stimulation, was measured using GraphPad Prism.
# [2] = test system: WT MEFs; assay: Confocal immunofluorescence (compartment size, Mander's colocalization, filipin) in WT MEFs; type: cell-based, mouse
# Protocol: as §1
# Immunofluorescence: Cells were fixed (4% paraformaldehyde (PFA)/4% sucrose in PBS free of Ca2+ and Mg2+ (PBS−/−) 20 min, RT), permeabilized (0.1% triton X-100 in PBS−/−; 10 min, RT), and blocked (2% BSA, 2% FBS, 1% gelatin, and depending of the experiment 2% of goat or donkey serum (Bioké or Sigma), 1 h RT). Primary antibodies diluted in the same blocking buffer were incubated overnight at 4° C. Following PBS washing steps, (goat- or donkey-) secondary antibodies conjugated with Alexa fluor dyes (Alexa 488, 568, or 647, all ThermoFisher Scientific) diluted in the blocking buffer were incubated for 1 h, RT. Coverslips were then mounted with Mowiol (Sigma). When cholesterol labelling was performed, fixed cells were treated with 200 μg·ml−1 filipin (F4767, Sigma) for 2 h at RT, prior to permeabilization.
# Acquisition: Z stack images (spacing 2 μm), or a median plan were acquired on a Nikon 1AR connected to an inverse Nikon Ti-2000 equipped with an oil-immersion plan APO 60× objective lenses with 1.40 NA. Data were collected using Nikon Imaging Software.
# Image analysis: All image analysis was done using Image J software (Schindelin et al 2012; Schneider et al 2012). To measure the area of the organelle of interest (early endosomes-EEA1; lysosomes-Lamp1; retromer-VPS35 . . . ), segmentation was realized using automatic thresholding. The following masks were used: Mean (EEA1), Ostu (Lamp1), Intermodes (VPS35). Overlap of signal of interests were quantified with Manders colocalisation index (Plugin Jacob, (Bolte and Cordelieres 2006)). When indicated, co-localization data was normalized to the reference group for multiple comparisons.
# [3] = test system: APPKO cells; assay: Lysosomal Ca2+ content, Fura-2AM loaded cells challenged with GPN, APPKO cells; type: cell-based, mouse; conditions: 1 μM, 4 days, normalized to DMSO
# Excerpt: Diluent treatment alone (in most cases DMSO, water for the cyclodextrin) was used as vehicle control.
# Briefly, the web-based CRISPR design tool was used to select the sequence to be targeted in mouse PSEN1 and PSEN2 (i.e. 5′-[…]-3′ and 5′-[…]-3′, respectively). Oligo pairs encoding guide sequences (obtained from Integrated DNA Technologies, IDT) were annealed and ligated into the pX330 plasmid (Addgene) according to the Zhang's laboratory protocol (https://www.addgene.org/crispr/zhang/). MEF cells were then transfected with the pX330-PSEN1 and PX330-PSEN2, using Fugene HD (Promega), in accordance with the manufacturer protocol. Selection of PSENdKO clones was achieved through serial dilution and confirmed by WB analysis. Further depletion of APP in different PSENdKO clones was achieved through electroporation of RNP complexes. […]
# Cells were rinsed three times and left to equilibrate for at least 15-20 min (RT). […] Briefly, cells were segmented manually and fluorescence intensities were measured over time. Fura-2 signals were corrected to obtain ΔF/F0 (F0 being the initial signal recorded). For each cell, the area under the curve, corresponding to the aforementioned stimulation, was measured using GraphPad Prism.
# [4] = test system: WT MEFs; assay: Immunoblot of APP-CTFs in drug-treated WT MEFs; type: cell-based, mouse; conditions: 1 μM for 1-4 days, vs DMSO
# Protocol: as §1
# Whole cell extracts were prepared starting from lysed cultured cells (80% confluency). Protein concentration was determined using the Bio-Rad DC protein assay (Bio-Rad). These extracts were run on 4-12% Bis-Tris Bolt or NuPAGE precast gels in MES/MOPS running buffer (Invitrogen), followed by transfer on nitrocellulose membranes (Life Technologies). Of note, for APP-CTFs characterization, samples were run on 16% tricine gels (Life Technologies) in the appropriate running buffer (LC1675, Life Technologies). Membranes were blocked with 5% non-fat milk (1 h, RT), incubated with primary antibodies (overnight, 4° C.), rinsed and incubated with HRP-conjugated secondary antibodies (1 h, RT). […]
# [5] = test system: lysosomal exocytosis; conditions: cited from earlier work
Compound,"lysosomal Ca2+ content ([1]; 1 μM for 1-4 days, 100 μM GPN)","lysosomal Ca2+ content ([1]; WT cells, 1 μM, 4 days)",early endosomes (EEA1) size ([2]; 1 μM for 1-4 days),"APP-CTF accumulation in LAMP1-positive LE/Lys (Mander's colocalization APP-Lamp1) ([2]; 1 μM for 1-4 days, vs DMSO)","cholesterol accumulation in LE/Lys (Filipin-Lamp1 colocalization) ([2]; 1 μM for 1-4 days, vs DMSO)","colocalization of VPS35 and EEA1 with Lamp1 ([2]; 1 μM for 1-4 days, from day 3 onward)","VPS35-positive organelles (size) ([2]; 1 μM, following 3 days of treatment)",Lysosomal Ca2+ content (GPN-elicited Ca2+ response) [3],APP-CTFs level (immunoblot) [4],lysosomal exocytosis and cholesterol accumulation [5]
C[C@H](NC(=O)Cc1cc(F)cc(F)c1)C(=O)N[C@H](C(=O)OC(C)(C)C)c1ccccc1 [DAPT],significantly reduced lysosomal Ca2+ content,reduced,significantly enlarged only after 4 days of treatment,increasing APP-CTF accumulation,only significantly from day 2,increased colocalization of VPS35 and EEA1 with Lamp1,found to be increased,did not affect the GPN-elicited Ca2+ response,rapidly accumulated APP-CTFs,
O=c1c(-c2ccc(O)cc2)coc2cc(O)cc(O)c12 [Genistein],,,,,,,,,,increase lysosomal exocytosis with a decrease in cholesterol accumulation
